Data as given in ChEMBL document CHEMBL1909046, “DrugMatrix in vitro pharmacology data”.

Key:
[1] = molecular target: Beta-3 adrenergic receptor (Homo sapiens, UniProt P13945); test: DRUGMATRIX: Adrenergic beta3 radioligand binding (ligand: [125I] Cyanopindolol); format: cell membranes, HEK293, Membrane; conditions: Not Active = under 50% inhibition at 10 µM
[2] = DRUGMATRIX: Atrial Natriuretic Factor (ANF) radioligand binding (ligand: [125I] ANF (rat)); format: cell membranes, Cavia porcellus, Dunkin-Hartley, Adrenal gland, Membrane; conditions: Not Active = under 50% inhibition at 10 µM
[3] = molecular target: 5-hydroxytryptamine receptor 4 (Cavia porcellus, UniProt O70528); format: cell membranes, Dunkin-Hartley, Striatum, Membrane; further: in other assays of this panel Not Active means under 50% inhibition at 10 µM
[4] = molecular target: Sigma non-opioid intracellular receptor 1 (Homo sapiens, UniProt Q99720); test: DRUGMATRIX: Sigma1 radioligand binding (ligand: [3H] Haloperidol); format: cell membranes, Jurkat, Membrane; conditions: Not Active = under 50% inhibition at 10 µM
[5] = molecular target: Mitogen-activated protein kinase 3 (Homo sapiens, UniProt P27361); test: DRUGMATRIX: Protein Serine/Threonine Kinase, ERK1 enzyme inhibition (substrate: Myelin Basic Protein); design: species or system Escherichia coli; conditions: Not Active = under 50% inhibition at 10 µM
[6] = molecular target: Protein phosphatase 3 catalytic subunit alpha (Homo sapiens, UniProt Q08209); design: species or system Escherichia coli;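 further: inhibition of calcineurin (PP2B) enzyme activity, measured with DiFMUP as the substrate; in other assays of this panel Not Active means under 50% inhibition at 10 µM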

Sequence of Beta-3 adrenergic receptor (P13945 whole entry): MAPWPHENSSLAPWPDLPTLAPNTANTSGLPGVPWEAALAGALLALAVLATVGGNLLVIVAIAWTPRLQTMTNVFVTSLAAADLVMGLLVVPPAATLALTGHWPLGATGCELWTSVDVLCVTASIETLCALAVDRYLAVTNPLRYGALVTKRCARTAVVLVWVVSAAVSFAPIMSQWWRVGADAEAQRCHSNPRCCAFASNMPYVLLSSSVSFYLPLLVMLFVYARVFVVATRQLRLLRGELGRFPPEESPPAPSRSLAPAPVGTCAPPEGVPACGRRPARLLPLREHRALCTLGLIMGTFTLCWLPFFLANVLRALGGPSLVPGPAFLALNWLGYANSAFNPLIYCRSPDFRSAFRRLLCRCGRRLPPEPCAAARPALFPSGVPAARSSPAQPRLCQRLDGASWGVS
Sequence of Sigma non-opioid intracellular receptor 1 (Q99720 whole entry): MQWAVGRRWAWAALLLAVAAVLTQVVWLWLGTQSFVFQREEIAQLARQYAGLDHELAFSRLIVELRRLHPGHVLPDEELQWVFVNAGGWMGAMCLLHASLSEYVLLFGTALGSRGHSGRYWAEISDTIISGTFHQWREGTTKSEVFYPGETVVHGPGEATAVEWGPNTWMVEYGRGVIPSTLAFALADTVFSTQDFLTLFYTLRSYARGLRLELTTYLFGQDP
Sequence of Mitogen-activated protein kinase 3 (P27361 whole entry): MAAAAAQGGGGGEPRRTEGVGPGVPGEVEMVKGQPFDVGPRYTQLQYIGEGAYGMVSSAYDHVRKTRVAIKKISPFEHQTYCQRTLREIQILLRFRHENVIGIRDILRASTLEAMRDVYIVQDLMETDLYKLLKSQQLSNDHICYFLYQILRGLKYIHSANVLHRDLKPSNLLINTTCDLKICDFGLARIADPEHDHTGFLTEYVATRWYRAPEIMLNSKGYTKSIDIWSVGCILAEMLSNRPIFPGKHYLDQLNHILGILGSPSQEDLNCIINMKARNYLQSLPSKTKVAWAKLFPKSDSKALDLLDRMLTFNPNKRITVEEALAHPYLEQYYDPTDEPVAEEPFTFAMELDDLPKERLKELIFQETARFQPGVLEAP
Sequence of 5-hydroxytryptamine receptor 4 (O70528 whole entry): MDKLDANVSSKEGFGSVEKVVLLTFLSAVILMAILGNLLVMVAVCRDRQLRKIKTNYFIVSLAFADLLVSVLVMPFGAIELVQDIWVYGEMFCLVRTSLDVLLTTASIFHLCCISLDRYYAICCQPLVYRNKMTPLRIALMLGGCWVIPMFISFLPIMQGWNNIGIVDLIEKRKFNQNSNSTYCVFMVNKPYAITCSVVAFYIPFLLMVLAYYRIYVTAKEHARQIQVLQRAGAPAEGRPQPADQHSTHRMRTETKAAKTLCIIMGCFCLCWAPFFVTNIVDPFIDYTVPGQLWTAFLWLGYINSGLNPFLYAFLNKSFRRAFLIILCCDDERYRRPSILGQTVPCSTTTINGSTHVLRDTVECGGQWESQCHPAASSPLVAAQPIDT

With `Cc1cccc(C)c1NC(=O)C(C)N` (stereo not given) [TOCAINIDE] the IC50 ([1]; hek293) was “Not Active”, the IC50 [2] was “Not Active” and the Ki [2] was “Not Active”. For the same molecule, the IC50 [3] was “Not Active”, the IC50 ([4]; jurkat) was “Not Active” and the IC50 [5] was “Not Active”. For the same molecule, the IC50 [6] was “Not Active”.

In the case of `CCN(CC)N=O` [N-NITROSODIETHYLAMINE], the IC50 ([1]; hek293) is reported as “Not Active”, the IC50 [2] is reported as “Not Active” and the Ki [2] is reported as “Not Active”. The IC50 [3] was “Not Active”, the IC50 ([4]; jurkat) was “Not Active” and the IC50 [5] was “Not Active”. For the same molecule, the IC50 [6] was “Not Active”.

For `CCC(C)(C)C(=O)O[C@H]1C[C@@H](C)C=C2C=C[C@H](C)[C@H](CC[C@@H]3C[C@@H](O)CC(=O)O3)[C@H]21` [SIMVASTATIN], the IC50 ([1]; hek293) was “Not Active”, the IC50 [2] was “Not Active” and the Ki [2] was “Not Active”. The IC50 [3] was “Not Active”, the IC50 ([4]; jurkat) was “Not Active” and the IC50 [5] was “Not Active”. The IC50 [6] was “Not Active”.

In the case of `CN1C[C@H](CNC(=O)OCc2ccccc2)C[C@@H]2c3cccc4c3c(cn4C)C[C@H]21` [METERGOLINE], the IC50 ([1]; hek293) is reported as “Not Active”, the IC50 [2] is reported as “Not Active” and the Ki [2] is reported as “Not Active”. The IC50 ([3]; read-out: IC50) was 1640 nM, the Ki ([3]; read-out: Ki) was 274 nM and the IC50 ([4]; jurkat) was “Not Active”. The IC50 [5] was “Not Active” and the IC50 [6] was “Not Active”.

With `CCN(CC)CCNC(=O)c1cc(Cl)c(N)cc1OC` [METOCLOPRAMIDE] the IC50 ([1]; hek293) was “Not Active”, the IC50 [2] was “Not Active” and the Ki [2] was “Not Active”. The IC50 [3] was “Not Active”, the IC50 ([4]; jurkat) was “Not Active” and the IC50 [5] was “Not Active”. The IC50 [6] was “Not Active”.

For `Cc1ccc(Cl)c(Nc2ccccc2C(=O)O)c1Cl` [MECLOFENAMIC ACID], the IC50 ([1]; hek293) was “Not Active”, the IC50 [2] was “Not Active” and the Ki [2] was “Not Active”. The IC50 [3] was “Not Active”, the IC50 ([4]; jurkat) was “Not Active” and the IC50 [5] was “Not Active”. For the same molecule, the IC50 [6] was “Not Active”.

For `CO[C@@]12[C@H](COC(N)=O)C3=C(C(=O)C(C)=C(N)C3=O)N1C[C@@H]1N[C@@H]12` [MITOMYCIN], the IC50 ([1]; hek293) was “Not Active”, the IC50 [2] was “Not Active” and the Ki [2] was “Not Active”. For the same molecule, the IC50 [3] was “Not Active”, the IC50 ([4]; jurkat) was “Not Active” and the IC50 [5] was “Not Active”. The IC50 [6] was “Not Active”.

With `Cc1[nH]c(=O)c(C#N)cc1-c1ccncc1` [MILRINONE] the IC50 ([1]; hek293) was “Not Active”, the IC50 [2] was “Not Active” and the Ki [2] was “Not Active”. The IC50 [3] was “Not Active”, the IC50 ([4]; jurkat) was “Not Active” and the IC50 [5] was “Not Active”. The IC50 [6] was “Not Active”.

In the case of `O=[As][O-].[Na+]` [SODIUM ARSENITE], the IC50 ([1]; hek293) is reported as “Not Active”, the IC50 [2] is reported as “Not Active” and the Ki [2] is reported as “Not Active”. For the same molecule, the IC50 [3] was “Not Active”, the IC50 ([4]; jurkat) was “Not Active” and the IC50 [5] was “Not Active”. For the same molecule, the IC50 [6] was “Not Active”.

For `COC(=O)Nc1nc2ccc(C(=O)c3ccccc3)cc2[nH]1` [MEBENDAZOLE], the IC50 ([1]; hek293) was “Not Active”, the IC50 [2] was “Not Active” and the Ki [2] was “Not Active”. For the same molecule, the IC50 [3] was “Not Active”, the IC50 ([4]; jurkat) was “Not Active” and the IC50 [5] was “Not Active”. For the same molecule, the IC50 [6] was “Not Active”.

With `CCOC(=O)C1=C(C)NC(C)=C(C(=O)OCC)C1c1ccccc1/C=C/C(=O)OC(C)(C)C` [LACIDIPINE] the IC50 ([1]; hek293) was “Not Active”, the IC50 [2] was “Not Active” and the Ki [2] was “Not Active”. The IC50 [3] was “Not Active”, the IC50 ([4]; jurkat) was “Not Active” and the IC50 [5] was “Not Active”. For the same molecule, the IC50 [6] was “Not Active”.

With `O=C(OC[C@H]1O[C@@H](OC(=O)c2cc(O)c(O)c(OC(=O)c3cc(O)c(O)c(O)c3)c2)[C@H](OC(=O)c2cc(O)c(O)c(OC(=O)c3cc(O)c(O)c(O)c3)c2)[C@@H](OC(=O)c2cc(O)c(O)c(OC(=O)c3cc(O)c(O)c(O)c3)c2)[C@@H]1OC(=O)c1cc(O)c(O)c(OC(=O)c2cc(O)c(O)c(O)c2)c1)c1cc(O)c(O)c(OC(=O)c2cc(O)c(O)c(O)c2)c1` [TANNIC ACID] the IC50 ([1]; hek293) was “Not Active”, the IC50 [2] was “Not Active” and the Ki [2] was “Not Active”. The IC50 [3] was “Not Active”, the IC50 ([4]; jurkat) was “Not Active” and the IC50 ([5]; read-out: IC50) was 4050 nM. The IC50 [6] was “Not Active”.

With `CC#C[C@]1(O)CC[C@H]2[C@@H]3CCC4=CC(=O)CCC4=C3[C@@H](c3ccc(N(C)C)cc3)C[C@@]21C` [MIFEPRISTONE] the IC50 ([1]; hek293) was “Not Active”, the IC50 [2] was “Not Active” and the Ki [2] was “Not Active”. For the same molecule, the IC50 [3] was “Not Active”, the IC50 ([4]; read-out: IC50) was 26300 nM and the Ki ([4]; read-out: Ki) was 11000 nM. The IC50 [5] was “Not Active” and the IC50 [6] was “Not Active”.

In the case of `CC(O)C(=O)O` (stereo not given) [LACTIC ACID], the IC50 ([1]; hek293) is reported as “Not Active”, the IC50 [2] is reported as “Not Active” and the Ki [2] is reported as “Not Active”. The IC50 [3] was “Not Active”, the IC50 ([4]; jurkat) was “Not Active” and the IC50 [5] was “Not Active”. The IC50 [6] was “Not Active”.

For `Cc1ccnc(NS(=O)(=O)c2ccc(N)cc2)n1` [SULFAMERAZINE], the IC50 ([1]; hek293) was “Not Active”, the IC50 [2] was “Not Active” and the Ki [2] was “Not Active”. The IC50 [3] was “Not Active”, the IC50 ([4]; jurkat) was “Not Active” and the IC50 [5] was “Not Active”. For the same molecule, the IC50 [6] was “Not Active”.

With `CC(C)(C)NC[C@H](O)COc1cccc2c1CCCC2=O` [LEVOBUNOLOL] the IC50 ([1]; read-out: IC50) was 340 nM, the Ki ([1]; read-out: Ki) was 255 nM and the IC50 [2] was “Not Active”. For the same molecule, the Ki [2] was “Not Active”, the IC50 [3] was “Not Active” and the IC50 ([4]; read-out: IC50) was 773 nM. For the same molecule, the Ki ([4]; read-out: Ki) was 325 nM, the IC50 [5] was “Not Active” and the IC50 [6] was “Not Active”.

With `CCOc1cc(N)c(Cl)cc1C(=O)NCC1CN(Cc2ccc(F)cc2)CCO1` (stereo not given) [MOSAPRIDE] the IC50 ([1]; hek293) was “Not Active”, the IC50 [2] was “Not Active” and the Ki [2] was “Not Active”. It also gave an IC50 ([3]; read-out: IC50) of 882 nM, a Ki ([3]; read-out: Ki) of 147 nM and an IC50 ([4]; read-out: IC50) of 306 nM. For the same molecule, the Ki ([4]; read-out: Ki) was 128 nM, the IC50 [5] was “Not Active” and the IC50 [6] was “Not Active”.

With `CC(=O)O[C@]1(C(C)=O)CC[C@H]2[C@@H]3C[C@H](C)C4=CC(=O)CC[C@]4(C)[C@H]3CC[C@@]21C` [MEDROXYPROGESTERONE ACETATE] the IC50 ([1]; hek293) was “Not Active”, the IC50 [2] was “Not Active” and the Ki [2] was “Not Active”. For the same molecule, the IC50 [3] was “Not Active”, the IC50 ([4]; jurkat) was “Not Active” and the IC50 [5] was “Not Active”. For the same molecule, the IC50 [6] was “Not Active”.

For `OC[C@@H](O)[C@@H](O)[C@H](O)[C@H](O)CO` [MANNITOL], the IC50 ([1]; hek293) was “Not Active”, the IC50 [2] was “Not Active” and the Ki [2] was “Not Active”. The IC50 [3] was “Not Active”, the IC50 ([4]; jurkat) was “Not Active” and the IC50 [5] was “Not Active”. The IC50 [6] was “Not Active”.

For `CC(Cl)(Cl)Cl` [TRICHLOROETHANE], the IC50 ([1]; hek293) was “Not Active”, the IC50 [2] was “Not Active” and the Ki [2] was “Not Active”. For the same molecule, the IC50 [3] was “Not Active”, the IC50 ([4]; jurkat) was “Not Active” and the IC50 [5] was “Not Active”. The IC50 [6] was “Not Active”.

With LEAD(IV) ACETATE the IC50 ([1]; hek293) was “Not Active”, the Ki ([1]; hek293) was “Not Active” and the IC50 [2] was “Not Active”. The Ki [2] was “Not Active”, the IC50 [3] was “Not Active” and the Ki [3] was “Not Active”. For the same molecule, the IC50 ([4]; jurkat) was “Not Active”, the Ki ([4]; jurkat) was “Not Active” and the IC50 [5] was “Not Active”. For the same molecule, the Ki [5] was “Not Active”, the IC50 [6] was “Not Active” and the Ki [6] was “Not Active”.

For `O=C(c1ccccc1)c1ccc2n1CCC2C(=O)O` (stereo not given) [KETOROLAC], the IC50 ([1]; hek293) was “Not Active”, the IC50 [2] was “Not Active” and the Ki [2] was “Not Active”. For the same molecule, the IC50 [3] was “Not Active”, the IC50 ([4]; jurkat) was “Not Active” and the IC50 [5] was “Not Active”. The IC50 [6] was “Not Active”.
